The source of these data is patent US20250163075A1, “HETEROBI[…] PROTEIN […]” (priority 2023, published 2025).

Each structure is given as a SMILES string.

Assay [1] concerns the target T1, KLHDC2 (Homo sapiens (Human), UniProt Q9Y2U9). Briefly: Sypro orange thermal stability (thermal shift) assay. It counts as binding. The method, then: To identify small molecules that bind to KLHDC2 the Sypro orange thermal stability assay was utilized. […] Assay solution containing 0.5 μM KLHDC2, 25 mM HEPES, 200 mM NaCl and 5% Sypro Orange pH 7.5 was added to a final volume of 20 ul and a final experimental ligand concentration of 50 uM. DMSO alone was included as a negative control and peptide sub2 was included as a positive control at 100 uM. The fluorescence of Sypro orange in each sample was measured on a Quantstudio 5 or a Quantstudio 6 at temperatures ranging from 23 to 75° C. at 0.05° C./second. Data reduction resulting in thermal stability (calculated using the Boltzmann and first derivative minima equations) was completed in the Thermo Scientific protein thermal shift software v1.4.

Assay [2] has as its target T1, KLHDC2. As to the kind of experiment: Time-resolved fluorescence energy transfer (TR-FRET) assay with Bodipy-labeled ligand probe. It is filed as binding. An excerpt: The integration start was set to 100 μs, and the integration time was set to 200 μs. The number of flashes was fixed at 100.
(In general: TR-FRET usually uses a lanthanide donor and a delayed reading to cut background.)

T1 sequence (Q9Y2U9 whole entry): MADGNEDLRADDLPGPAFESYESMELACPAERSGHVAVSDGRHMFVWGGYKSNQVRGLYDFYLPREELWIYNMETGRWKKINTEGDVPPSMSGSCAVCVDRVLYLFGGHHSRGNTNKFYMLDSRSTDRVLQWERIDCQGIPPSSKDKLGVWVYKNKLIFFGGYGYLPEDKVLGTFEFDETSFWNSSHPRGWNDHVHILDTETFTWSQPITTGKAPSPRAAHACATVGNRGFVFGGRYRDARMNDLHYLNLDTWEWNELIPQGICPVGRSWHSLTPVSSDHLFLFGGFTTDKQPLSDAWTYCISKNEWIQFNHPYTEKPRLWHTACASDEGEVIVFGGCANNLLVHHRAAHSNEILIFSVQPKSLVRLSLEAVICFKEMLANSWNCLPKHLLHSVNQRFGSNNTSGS

A word on the IC50: it is the concentration that inhibits the measured activity by half. On to `COCCOc1cccc2ccc(-c3nc(CC(=O)NCC(=O)O)cs3)cc12` [Compound 15A], for which the “ΔTm (° C.) 50 μM ligand” value in assay [1] (Table 2, 0.5 μM KLHDC2) was 4.3 ± 0.2 °C. In addition, the IC50 in assay [2] (Table 2) is 1.1 µM. On to `COc1ccc2cc(-c3nc(CC(=O)NCC(=O)O)cs3)ccc2c1` [Compound 10, (2-(2-(6-Methoxynaphthalen-2-yl)Thiazol-4-yl)Acetyl)Glycine], for which the “ΔTm (° C.) 50 μM ligand” value in assay [1] (Table 1, 0.5 μM KLHDC2) was determined as 3.9 ± 0.1 °C. The same compound gave a half-maximal inhibitory concentration (IC50) in assay [2] (Table 1) of 9.6 µM.

Regarding `COc1ccc2ccc(-c3nc(CC(=O)NCC(=O)O)cs3)cc2c1` [Compound 14, (2-(2-(7-Methoxynaphthalen-2-yl)Thiazol-4-yl)Acetyl)Glycine], in assay [1] (Table 1, 0.5 μM KLHDC2), the “ΔTm (° C.) 50 μM ligand” value turned out to be 4.3 ± 0.2 °C. The IC50 in assay [2] (Table 1) came to 1.7 µM.

Consider `COCOc1ccc(-c2nc(CC(=O)NCC(=O)O)cs2)c(Cl)c1` [i], for which, in assay [1] (Table 1, 0.5 μM KLHDC2), the “ΔTm (° C.) 50 μM ligand” value was determined as 3.52 ± 0.424 °C. In addition, in assay [2] (Table 1), the IC50 stood at 24.1 µM. The matching figures for `O=C(O)CNC(=O)Cc1csc(-c2ccc3ccccc3c2)n1` [Compound 8, (2-(2-(Naphthalen-2-yl)Thiazol-4-yl)Acetyl)Glycine]: 6.0 ± 0.0 °C and 3.9 µM.

The compound `O=C(O)CNC(=O)Cc1csc(-c2ccc3ccn(CCCN4CCNCC4)c3c2)n1` [Compound 24, (2-(2-(1-(3-(Piperazin-1-yl)Propyl)-1H-Indol-6-yl)Thiazol-4-yl)Acetyl)Glycine] registered a half-maximal inhibitory concentration (IC50) in assay [2] (Table 2) of 1.2 µM. The compound `O=C(O)CNC(=O)Cc1csc(-c2ccc3cc[nH]c3c2)n1` [Compound 23, (2-(2-(1H-Indol-6-yl)Thiazol-4-yl)Acetyl)Glycine] showed an IC50 in assay [2] (Table 1) of 1.1 µM. In the case of `O=C(O)CNC(=O)Cc1csc(-c2ccc3cccc(OCCN4CCNCC4)c3c2)n1` [Compound 19, (2-(2-(8-(2-(Piperazin-1-yl)Ethoxy)Naphthalen-2-yl)Thiazol-4-yl)Acetyl)Glycine], in assay [1] (Table 2, 0.5 μM KLHDC2), the “ΔTm (° C.) 50 μM ligand” value stood at 4.8 ± 0.0 °C. The compound also came in with a half-maximal inhibitory concentration (IC50) in assay [2] (Table 2) of 1.6 µM. Regarding `O=C(O)CNC(=O)Cc1csc(-c2cccc3ccncc23)n1` [Compound 9, (2-(2-(Isoquinolin-8-yl)Thiazol-4-yl)Acetyl)Glycine], in assay [1] (Table 1, 0.5 μM KLHDC2), the “ΔTm (° C.) 50 μM ligand” value came to 1.8 ± 0.0 °C. For the same compound, the IC50 in assay [2] (Table 1) came out at 20.3 µM. `O=C(O)CNC(=O)Cc1csc(-c2ccc3c(c2)NCCO3)n1` [Compound 27, (2-(2-(3,4-Dihydro-2H-Benzo[B][1,4]Oxazin-6-yl)Thiazol-4-yl)Acetyl)Glycine] came in with an IC50 in assay [2] (Table 1) of 3 µM. Consider `O=C(O)CNC(=O)Cc1csc(-c2ccc3ccccc3c2F)n1` [Compound 13, (2-(2-(1-Fluoronaphthalen-2-yl)Thiazol-4-yl)Acetyl)Glycine], for which the “ΔTm (° C.) 50 μM ligand” value in assay [1] (Table 1, 0.5 μM KLHDC2) turned out to be 6.0 ± 0.2 °C. This compound gave an IC50 in assay [2] (Table 1) of 1.8 µM. For `O=C(O)CNC(=O)Cc1csc(-c2cccc3cccnc23)n1` [Compound 11, (2-(2-(Quinolin-8-yl)Thiazol-4-yl)Acetyl)Glycine], in that order: 2.7 ± 0.4 °C and 7.1 µM. For `O=C(O)CNC(=O)Cc1csc(-c2cccc3ccccc23)n1` [Compound 12, (2-(2-(Naphthalen-1-yl)Thiazol-4-yl)Acetyl)Glycine], in that order: 3.7 ± 0.0 °C and 8.8 µM.
